# Laboratory results reported in patent US9557338B2 (SIGNAL PHARMACEUTICALS, LLC, priority 2012, dated 2017).
# Like-named read-outs stand apart in the source and are kept apart here.
# What was measured:
# Type in all cases: cell-based
# mTORC2 = molecular target: T1, mTORC2 (Homo sapiens, UniProt P42345); assay: Inhibition of mTORC2 measured by phosphorylation of pathway markers (FIG. 1); details: phosphorylation of pathway markers Akt, PRAS40, GSK-3β, p70S6, S6, 4-EBP1
# T1 construct: endogenous in cells; host or cells: PC3, A549, HCT116, U-87 MG, MDA-MB-231, NCI-H23, HT-29
# Source text: The activity of the TORC1 complex can be followed from the phosphorylation status of 4E-BP1(T46), a direct substrate of mTOR kinase and S6RP(S235/S236), a downstream substrate from mTOR. The activity of the TORC2 complex can be followed directly from the phosphorylation status of Akt(S473) and indirectly from the phosphorylation status of AKT substrates, GSK3β(S9) and PRAS40(T246). […] Full activation of Akt requires an additional phosphorylation on T308 that is done by PDK1 and is speculated to be co-dependent with the TORC2 phosphorylation of the Akt(S473).
# p70S6K = assay: Luminex multiplex assay, p70S6K phosphorylation in cell lysates
# HCT116 = assay: Growth inhibition (cell proliferation assay), HCT116; details: read-out: Compound 1 Growth Inhibition IC50
# Akt(T308) = assay: Inhibition of Akt(T308) phosphorylation in cell lines; details: read-out: p-Akt(T308)
# PC3 = assay: Growth inhibition (cell proliferation assay), PC3; details: read-out: Compound 1 Growth Inhibition IC50
# U-87 MG = assay: Growth inhibition (cell proliferation assay), U-87 MG; details: read-out: Compound 1 Growth Inhibition IC50
# MDA-MB-231 = assay: Growth inhibition (cell proliferation assay), MDA-MB-231; details: read-out: Compound 1 Growth Inhibition IC50
smiles,measurement,setting,value
"CO[C@H]1CC[C@H](N2C(=O)CNc3ncc(-c4ccc(C(C)(C)O)nc4)nc32)CC1 [Compound 1, 7-(6-(2-hydroxypropan-2-yl)pyridin-3-yl)-1-((1r,4r)-4-methoxycyclohexyl)-3,4-dihydropyrazino-[2,3-b]pyrazin-2(1H)-one]",inhibition of mTORC2,mTORC2,inhibition
same,IC50,"p70S6K; HCT116 cell line, IGF, read-out: Luminex p70S6K (IGF)",191 nM
same,IC50,"p70S6K; U87MG cell line, read-out: Luminex p70S6K",103 nM
same,IC50,HCT116,370 nM
same,IC50,Akt(T308); A549,640 nM
same,IC50,Akt(T308); HCT116,1950 nM
same,IC50,Akt(T308); HT-29,240 nM
same,IC50,Akt(T308); PC3,130 nM
same,IC50,Akt(T308); U-87 MG,260 nM
same,IC50,PC3,110 nM
same,IC50,U-87 MG,790 nM
same,IC50,MDA-MB-231,1770 nM
